One data set concerns rat calvaria bone defect. The data set is described as follows: POSS-bone samples implanted in vivo into rat calvaria as a bone defect. The following applies: eight POSS-bone samples 5 mm in length; examined after one month.
Another data set deals with osteoblasts. Kind of data set: Osteoblast adhesion on POSS-coated titanium. It counts as cell-based. The settings on record: from Table 2 findings. As to the method: (§1) [(RSiO1.5)4(Rl(OH)SiO1.0)3]Σ7 (1 g) was dissolved in dichlormethane and sprayed onto metallic titanium samples. The samples were then dried at 110° C. for 2 hours.
(§2) Experimental samples with 50% surface coverage of POSS were exposed to osteoblasts and fibroblasts cultured in Dulbecco's modified eagle medium (DMEM), supplemented with 10% fetal bovine serum (FBS) and 1% penicillin streptomycin (P/S), under standard cell culture conditions (sterile chamber maintained at 37° C. and a humidified environment: 5% CO2/95% air). The stock solutions were supplied by HyClone.
(§3) For this purpose, osteoblasts, and fibroblasts were separately seeded (10,000 cells cm^2) onto the experimental titanium substrate, and were allowed to adhere in standard cell culture conditions for 48 hours. After the prescribed time period, substrates were rinsed three times using phosphate-buffered saline (PBS) to remove non-adherent cells. The adhered cells were fixed with formaldehyde (Fisher), stained with Hoechst 33 258 dye (Sigma), and counted using fluorescence microscopy (365 nm excitation and 400 nm emission wavelengths). The findings in Table 2 indicate a clear differentiation in binding a cellular modulation relative to the type of R group present on the cage.
(§4) All experiments were run in triplicate, and repeated three different times.

The next data set deals with bone. Kind of data set: Bone formation in vitro (OsteoPOSS). The settings on record: FIG. 6. It counts as cell-based.
Data set [1] is described as follows: Dispersion of POSS compounds in personal care and cosmetic products. It counts as physicochemical. The following applies: approximately 5% POSS by weight. As to the method: In light of the observed cellular differentiation and modulation promoted by nanostructured chemicals, a series of POSS, POS and POMS were added to conventional personal care and cosmetic products. […] A summary of the products and finding is listed below.
Each sample prepared consisted of approximately 5% of POSS by weight and was inspected visually and by biometric techniques for the dispersion of the POSS compound. The products in which the POSS compounds could be dispersed without being felt are listed under the POSS compounds studied.

For data set [2], the system named is cuts through the endermal skin layer. Kind of data set: FibroPOSS treatment of cuts in a human arm. It counts as in vivo. As to the method: Based upon the differentiation from Example 1, a series of in vivo FibroPOSS examinations was made using [(isoOctylSiO1.5)4(isoOctyl(OH)SiO1.0)3]Σ7 and [([…])8]Σ8. In a human arm a series of six cuts were made through the endermal skin layer.
The top two cuts were treated with 100% [(isoOctylSiO1.5)4(isoOctyl(OH)SiO1.0)3]Σ7(SO1455) and [(isoOctylSiO1.5)8]Σ8 (MS0805).
The middle two cuts had 50/50 SO1450+bactin antibiotic and 50/50 MS0805+bactin antibiotic.
The bottom left cuts had 100% bactin antibiotic and the bottom right cut had no treatment.

A further data set deals with fibroblasts. Kind of data set: Fibroblast adhesion on POSS-coated titanium. It counts as cell-based. The settings on record: from Table 2 findings. As to the method:
as §1, §2, §3, §4

Turning to `O[Si]1(c2ccccc2)O[Si]2(c3ccccc3)O[Si](O)(c3ccccc3)O[Si]3(c4ccccc4)O[Si](O)(c4ccccc4)O[Si](c4ccccc4)(O1)O[Si](c1ccccc1)(O2)O3` (stereo not shown) [[(phenylSiO1.5)4(phenyl(OH)SiO1.0)3]Σ7], the “Appearance of bone implantation site” value with rat calvaria bone defect was “indistinguishable from normal rat bone”. Further, the “Osteoblast binding preference by R group on the cage” value with osteoblasts is on record as “osteoblast exhibited a preference”. In the data set with bone, the “Bone formation in vitro” value is “form bone in vitro”.
For the compound “[(isoOctylSiO1.5)4(isoOctyl(OH)SiO1.0)3]Σ7 [SO1455]”, the “Observation on product after POSS addition” value in data set [1] (Dial Antibacterial Hand Soap) is given as “remained clear”; in data set [1] (Isoplus Styling Gel), “became thicker”; in data set [1] (Ivory Hand Soap), “remained clear”; in data set [1] (Right Guard Deodorant) it was “became thicker”; in data set [1] (Suave Shampoo), “remained clear”. Further, in data set [2], the “Bleeding of cut after treatment” value is reported as “did not show any bleeding”. The “Clotting of cut after treatment” value in data set [2] was “nor was visible clotting observed”. The “Fibroblast binding preference by R group on the cage” value in the data set on fibroblasts is “fibroplasts preferred”.
Consider [(isoOctylSiO1.5)8]Σ8 [MS0805], for which, in data set [2], the “Bleeding of cut after treatment” value is given as “did not show any bleeding” and the “Clotting of cut after treatment” value is reported as “nor was visible clotting observed”.

The values above are taken from patent US7572872B2, “Biomimetic materials comprising polyhedral oligomeric silsesquioxanes” (priority 2005, dated 2009).
